Reference: patent publication US7989483B2, “4-heteroarylimidazole-2-thione tyrosinase inhibitors and pharmaceutical/cosmetic applications thereof” (Galderma Research & Development, priority 2007, dated 2011)

Target: T1, tyrosinase (Mus musculus, UniProt P11344)
T1 construct: the supernatant obtained constitutes the cell lysate used as tyrosinase source in the enzymatic assay; endogenous in cells; host or cells: B16F1 murine melanoma cells (alpha-MSH stimulated), detergent lysate supernatant
T1 sequence (P11344 19-533): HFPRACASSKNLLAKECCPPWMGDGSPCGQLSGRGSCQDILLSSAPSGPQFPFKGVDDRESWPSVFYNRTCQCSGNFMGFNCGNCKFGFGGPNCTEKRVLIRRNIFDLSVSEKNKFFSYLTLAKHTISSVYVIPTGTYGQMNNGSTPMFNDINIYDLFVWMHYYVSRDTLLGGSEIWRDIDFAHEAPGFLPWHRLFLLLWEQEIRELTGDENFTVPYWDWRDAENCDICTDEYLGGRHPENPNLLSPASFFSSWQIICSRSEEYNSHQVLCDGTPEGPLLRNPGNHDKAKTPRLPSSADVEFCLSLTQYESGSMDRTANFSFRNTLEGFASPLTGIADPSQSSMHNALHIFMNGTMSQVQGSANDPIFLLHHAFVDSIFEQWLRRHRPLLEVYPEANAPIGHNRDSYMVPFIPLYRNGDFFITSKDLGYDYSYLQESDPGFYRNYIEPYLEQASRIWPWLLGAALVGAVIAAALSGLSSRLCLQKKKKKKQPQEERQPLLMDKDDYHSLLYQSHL
Test: Tyrosinase activity inhibition assay (B16F1 cell lysate, L-tyrosine substrate, MBTH, 520 nm)
Type: biochemical
Conditions: lysate of B16F1 cells (murine melanoma line), L-DOPA cofactor, 37° C., reading at 520 nm after 6 hours, read-out: Tyrosine hydroxylase/Dopa oxidase IC50
Procedure: The activity of the inhibitors is measured starting from a lysate of B16F1 cells (murine melanoma line). In the presence of the L-tyrosine substrate, the tyrosinase present in these cells catalyses the hydroxylation of L-tyrosine to give L-DOPA and then the oxidation of the L-DOPA to give dopaquinone. In the presence of MBTH (3-methyl-2-benzothiazolinone hydrazone), the dopaquinone is trapped so as to form a pink complex which absorbs at 520 nm.
The B16F1 cells are cultured in DMEM medium+10% foetal calf serum+10^−9 M α-MSH for 4 days at 37° C. under 7% CO2. They are treated with trypsin, washed with PBS, counted and pelleted. The pellet is taken up at 10^7 cells/ml in lysis buffer (10 mM sodium phosphate, pH 6.8-1% Igepal) and the suspension is treated with ultrasound for 10 seconds. After centrifugation for 30 minutes at 4000 rpm, the supernatant obtained constitutes the cell lysate used as tyrosinase source in the enzymatic assay.
The assays are carried out in duplicate in 384-well plates in a total volume of 50 μl. Each well contains: […]
The plate is incubated at 37° C. and a spectrophotometric reading is carried out at 520 nm after incubating for 6 hours. To avoid any possible absorption of the products, the system uses corrected absorbance (absorbance at time 6 h—absorbance at time zero). […]

Row | IC50 | Structure (SMILES)
1 | 300 nM | Cc1ccc(-c2c[nH]c(=S)[nH]2)s1 [Compound 3, 4-(5-methylthiophen-2-yl)-1,3-dihydroimidazole-2-thione]
2 | 100 nM | Cc1csc(-c2c[nH]c(=S)[nH]2)c1 [Compound 4, 4-(4-methylthiophen-2-yl)-1,3-dihydro-imidazole-2-thione]
